Like-named read-outs stand apart in the source and are kept apart here. Marks after values point to notes of the source that are not given here.

A short description of data set [1]: Thermodynamic stability of the Fe(III) complexes (competition with HBED/NOTA, CZE or spectrophotometry). The conditions noted are these: Spectrophotometry, 0.15M NaNO3, 25° C.
Procedure: (§1) To assess the thermodynamic stability of the Fe(III) complexes of the invention, as well as of comparative ones, the protonation constants of the respective ligands first, and then of the Fe(III) complexes, were determined by pH-potentiometry and/or by UV spectrophotometry. Finally, based on the protonation constants, the thermodynamic stability constant of the Fe(III) complexes of the invention were determined by observing the competition reaction between the Fe(III) complexes and the N,N′-bis(2-hydroxybenzyl)ethylenediamine-N,N′-diacetic acid (HBED) ligand using capillary zone electrophoresis (CZE) for Compound 2 and Vis spectrophotometry for Compound 4.
(§2) The thermodynamic stability constants (KMLigand=([MLigand]/([M]×[Ligand])) of the Fe(III) complexes were determined as follows.
(§3) The stability constant of the Fe(NOTA) complex was determined by spectrophotometry studies of the Fe^3+-NOTA system at the absorption band of Fe^III complexes at [H^+]=0.01-3.0 M in the wavelength range of 350-800 nm. The concentrations of Fe^3+ and NOTA were 0.002 M. The H^+ concentration in the samples was adjusted with the addition of calculated amounts of a 6 M solution of HNO3 (I=[Na^+]+[H^+]=0.15, [H^+]≤0.15 M). The samples were kept at 25° C. for two weeks.
(§4) The absorbance values of the samples were determined at 11 wavelengths (370, 380, 390, 395, 400, 405, 410, 415, 420, 425 and 430 nm). For the calculations of the thermodynamic stability constant of the Fe(NOTA), the molar absorptivities of Fe^3+ and Fe(NOTA) were determined by recording the spectra of 1.0×10^−3, 1.5×10^−3, 2.0×10^−3 and 2.5×10^−3 M solutions of Fe^3+ and Fe(NOTA) solutions. The absorption spectra of the Fe(NOTA) solutions were recorded in the pH range of 1.7-7.5. All spectrophotometric measurements were performed at 25° C. in 0.15 M NaNO3 solution. The pH was adjusted by stepwise addition of concentrated NaOH or HNO3 solutions.
(§5) The stability constants of the Fe(HBED) complex was determined by following the competition reaction between HBED and NOTA ligands for Fe^3+-ion with spectrophotometry at the absorption band of Fe(HBED) complex in the wavelength range of 400-700 nm. […] The time needed to reach the equilibria was determined by spectrophotometry. The absorbance values of the samples were determined at the absorption band of the Fe(HBED) complex ([Fe(HBED)]-species predominates at pH=5.0). For the calculations of the thermodynamic stability constants of the Fe(HBED) complexes, the molar absorptivities of [Fe(HBED)]-species were determined by recording the spectra of 0.5, 0.1 and 0.2 mM solutions of [Fe(HBED)]^− at pH=5 in the presence of 0.15 M NaNO3. […] The thermodynamic stability constants were calculated with the PSEQUAD program. […]
Data set [2] is described as follows: Kinetic inertness: transchelation reactions with excess HBED as exchanging ligand. It counts as physicochemical. As to the method:
To obtain data relating to the kinetic inertness of Fe(Compound 2), Fe(Compound 4) and Fe(NOTA) (comparative), the transchelation reactions (schematized below) were investigated by VIS-spectrophotometry (for Fe(Compound 4) and Fe(NOTA), comparative) and by Capillary Zone Electrophoresis (CZE) (for Fe(Compound 2)) in the presence of a large excess of HBED as an exchanging ligand (Fe(Compound 2): [Fe(Compound 2)]=87 μM, [HBED]=0.1 and 0.2 M, 1.0 M NaClO4, 25° C.; Fe(Compound 4): [Fe(Compound 4)]=100 μM, [HBED]=0.002 and 0.02 M, 0.15 M NaNO3, 25° C. Fe(NOTA): [Fe(NOTA)]=0.2 mM, [HBED]=2.0 and 4.0 mM, 0.15 M NaNO3, 25° C.) in order to guarantee the pseudo-first order kinetic conditions. FeL+HBED ? Fe(HBED)+L with L=Compound 2, Compound 4 or NOTA. A) Determination of Kinetic Inertness of Fe(III) Complexes
The transchelation reactions of Fe(Compound 4) and Fe(NOTA) (comparative) were studied by spectrophotometry, following the formation of the resulting Fe(HBED) complex at 472 and 470 nm with PerkinElmer Lambda 365 UV-Vis spectrophotometer. The concentration of the Fe(Compound 4) and Fe(NOTA) complex was 0.1 and 0.2 mM, while the concentration of the HBED was 10-200 times higher, in order to guarantee pseudo-first-order conditions. The temperature was maintained at 25° C. and the ionic strength of the solutions was kept constant, 0.15 M for NaNO3. The exchange rates were studied in the pH range about 9.5-14.0. Buffer was not used since the excess of HBED was able to maintain the constant pH values at pH<12. […] The pseudo-first-order rate constants (kd) were calculated by fitting of the absorbance—time data pairs to Equation 2.
[formula] where At, A0 and Ap are the absorbance values at time t, the start of the reaction and at equilibrium, respectively. […] The pseudo-first-order rate constants (kd) were calculated by fitting the area-time data pairs to Equation 2 above, where At, A0 and Ap are the area values at time t, the start of the reaction and at equilibrium, respectively. […]

A short description of data set [3]: Protonation constants of the Fe(III) complexes (pH-potentiometry / UV spectrophotometry). It counts as physicochemical. As to the method: The protonation constants (KMHiLigand=[MHiLigand]/([MHi-1Ligand]×[H^+])) of the Fe(III) complexes of Compound 2, of Compound 4, of NOTA (comparative), and of HBED (comparative) were determined by pH-potentiometric and/or by spectrophotometric studies.
In particular, the protonation constants of the Fe(NOTA) and Fe(HBED) complexes were determined using pH-potentiometry by titrating the pre-prepared complexes from pH=1.7 to pH=12.0 with 0.2 M NaOH([FeL]=0.002 M). For the pH measurements and titrations, Metrohm 888 Titrando titration workstation Metrohm-6.0234.110 combined electrode was used. Equilibrium measurements were carried out at a constant ionic strength (0.15 M NaNO3 or NaClO4) in 6 ml samples at 25° C. The solutions were stirred, and N2 was bubbled through them. The titrations were made in the pH range of 1.7-12.0. KH-phthalate (pH=4.005) and borax (pH=9.177) buffers were used to calibrate the pH meter. For the calculation of [H^+] from the measured pH values, the method disclosed in Irving et al. Anal. Chim. Acta, 1967, 38, 475-488 was used as follows: a 0.01M HNO3 or HClO4 solution was titrated with a standardized NaOH solution at 0.15 M NaNO3 ionic strength. The differences (A) between the measured (pHread) and calculated pH (−log [H^+]) values were used to obtain the equilibrium H^+ concentration from the pH values measured in the titration experiments (A=0.02 for 0.15 M NaNO3, 0.01 for 0.15 M NaClO4). For the equilibrium calculations, the stoichiometric water ionic product (pKw) was also needed to calculate [OH^−] values under basic conditions. The VNaOH-pHread data pairs of the HNO3—NaOH titration obtained in the pH range 10.5-12.0 were used to calculate the pKw value (pKw=13.76).
The protonation constants of Fe(Compound 2) and Fe(Compound 4) complexes were determined by UV spectrophotometry analysis in the wavelength range of 210-700 nm ([Fe(Compound 2)]=43 μM, [Fe(Compound 4)]=100 μM, 0.15 M NaClO4, 25° C.) according to the method disclosed in Example 11A above.

For data set [4] the following is noted: for pFe (−log [Fe^3+]free, conditional stability): 10 µM, pH 7.4.
Procedure: as §1, §2, §3, §4, §5
The conditions of data set [5]: 60 MHZ, 40° C. in PBS buffer; cited from earlier work.
For data set [6] the following is noted: 0.15M NaNO3; from Baranyai et al., Chem. Sci. 2021; cited from earlier work.
The mark [7] stands for this setting: 0.15M NaNO3, 25° C., spectrophotometry.
[8] abbreviates: pH-potentiometry, 0.15M NaNO3, 25° C.
Where [9] appears, read: Spectrophotometry, 0.15M NaClO4, 25° C.

In the case of `O=C([O-])CN(CCN(CC(=O)[O-])Cc1ccccc1[O-])Cc1ccccc1[O-].[Fe+3]` [Fe(HBED)], the “FeL (thermodynamic stability constant, log KFeL)” value in data set [1] came to 40.2.
In the case of `O=C(O)CN1CCN(CC(=O)O)CCN(CC(=O)O)CC1` [NOTA, reference compound], the “kd (s^−1) at pH = 7.4 (dissociation rate constant)” value (“kd” below) in data set [2] (setting [7]) is listed as 4.0 × 10^−9 s^−1. The “FeLH−1 (protonation constant of the Fe(III) complex)” value in data set [3] (setting [8]) is recorded as 9.12 (4).
On to `Cc1cc(CNC(CO)CO)c(O)c(CN2CCN(Cc3cc(C)cc(CNC(CO)CO)c3O)CCN(Cc3cc(C)cc(CNC(CO)CO)c3O)CC2)c1` [Compound 2, 2,2′,2″-{1,4,7-triazonane-1,4,7-triyltris[methylene(2-hydroxy-5-methyl-3,1-phenylene)methyleneazanediyl]}tri(propane-1,3-diol)], for which the “kd” value in data set [2] (1.0M NaClO4, 25° C., CZE, extrapolated from data at pH>9.0) is 1.9 × 10^−9 s^−1. In data set [3] (setting [9]), the “FeH2L (protonation constant of the Fe(III) complex)” value is reported as 9.47 (1)^b, the “FeH3L (protonation constant of the Fe(III) complex)” value is given as 7.82 (5)^b and the “FeHL (protonation constant of the Fe(III) complex)” value (“FeHL” below) is recorded as 10.53 (4)^b. Besides, in data set [4], the “pFe (−log [Fe^3+]free, conditional stability)” value worked out at 32.4. Further, the “FeL (thermodynamic stability constant, log KFeL)” value in data set [4] (4 weeks, 87 µM, pH 11) is 44.0 (3).
Consider `O=C(O)CN(CCN(CC(=O)O)Cc1ccccc1O)Cc1ccccc1O` [HBED, N,N′-bis(2-hydroxybenzyl)ethylenediamine-N,N′-diacetic acid, reference compound], for which, in data set [3] (setting [8]), the “FeHL” value is recorded as 1.87 (4) and the “FeLH−1 (protonation constant of the Fe(III) complex)” value was 12.3 (1). Moreover, the “r1 of Fe(III) complex” value in data set [5] was 0.49 mM⁻¹ s⁻¹.
Take `Cc1cc(CNC(CO)CO)c(O)c(CN2CCNCCN(Cc3cc(C)cc(CNC(CO)CO)c3O)CC2)c1` [Compound 4, 2,2′-{1,4,7-triazonane-1,4-diylbis[methylene(2-hydroxy-5-methyl-3,1-phenylene)methyleneazanediyl]}di(propane-1,3-diol)]: the “kd” value in data set [2] (setting [7]) is reported as 3.4 × 10^−8 s^−1. In data set [3] (setting [9]), the “FeH2L (protonation constant of the Fe(III) complex)” value is 6.02 (1)^b, the “FeHL” value is reported as 8.82 (1)^b and the “FeLH−1 (protonation constant of the Fe(III) complex)” value is given as 10.12 (1)^b. The “pFe (−log [Fe^3+]free, conditional stability)” value in data set [4] turned out to be 26.5.
Consider `O=C(O)CN(CC(=O)O)C1CCCCC1N(CC(=O)O)CC(=O)O` (stereo not drawn) [CDTA, trans-cyclohexane diamine tetraacetic acid], for which the “kd” value in data set [6] was 2.1 × 10^−9 s^−1.
For `O=C(O)CN(CCN(CC(=O)O)CC(=O)O)CC(=O)O` [EDTA], the “kd” value in data set [6] is on record as 2.9 × 10^−6 s^−1.

(Values after patent US12358880B2, “1,4-bis-(2-hydroxy-benzyl)-1,4,7-triazacyclononane derivatives and similar compounds as ligands in iron(III) complexes for use as MRI contrast agents” (BRACCO IMAGING S.P.A., priority 2022, dated 2025).)
